pIC50: −log10 of the molar value. Counter-ions that a name gives are not always drawn.
Experiments:
[1] = target: human recombinant adenosine kinase (Homo sapiens, UniProt P55263); experiment: Inhibition of human recombinant adenosine kinase; type: biochemical; conditions: 14C-adenosine substrate, 0.5 mM ATP, 37° C., 20 min; read-out: Adenosine kinase inhibition (in vitro): IC50
Experimental: 1. Inhibition of Human Recombinant Adenosine Kinase
The test is carried out on 96-well filter plates (DE81 from Millipore, DEAE cellulose, 0.65 μm). The test buffer contains 50 mM tris/HCl pH 8.0, 10 mM DTT and 1 mM MgCl2; immediately prior to the start of the test, ATP is added in a concentration of 0.5 mM. The substrate used is ^14C-adenosine, diluted 1:30 in cold adenosine; the final concentration of the cold adenosine is 4×10^−6 M; the amount of ^14C-adenosine is chosen such that, at a volume of 10 μl, an activity of 0.5 kBq (=30 000 decays per minute) is present per well of the filter plate. The substances to be tested are dissolved in DMSO in a concentration of 10^−2 M. Further dilutions are carried out using water.
When carrying out the test, initially 80 μl of buffer are initially charged into each well. The test substances, the substrate adenosine and finally human recombinant adenosine kinase (Mathews J. J. et al., Biochemistry (1998) 37, 15607-15620) in test buffer pH 7.4 are added successively, in each case in a volume of 10 μl. The adenosine kinase concentration is chosen such that at most 30% of the total amount of adenosine are converted. The plates are then incubated at 37° C. for 20 min. The reaction is then stopped by filtration with suction. The filters are washed in each case once with ice-cold wash buffer (15 mM Tris/HCl pH 8.5) and ethanol. The plate is dried at 37° C. (about 15 min). 50 μl of scintillation solution are then pipetted into each well, and the ^14C activity is determined in a MicroBeta counter.
The inhibition of the enzyme activity by the substances tested is determined after substration of the blank value (no added enzyme) in comparison to the uninhibited enzyme (100% value).

Chain of human recombinant adenosine kinase (P55263 1-345 isoform P55263-2): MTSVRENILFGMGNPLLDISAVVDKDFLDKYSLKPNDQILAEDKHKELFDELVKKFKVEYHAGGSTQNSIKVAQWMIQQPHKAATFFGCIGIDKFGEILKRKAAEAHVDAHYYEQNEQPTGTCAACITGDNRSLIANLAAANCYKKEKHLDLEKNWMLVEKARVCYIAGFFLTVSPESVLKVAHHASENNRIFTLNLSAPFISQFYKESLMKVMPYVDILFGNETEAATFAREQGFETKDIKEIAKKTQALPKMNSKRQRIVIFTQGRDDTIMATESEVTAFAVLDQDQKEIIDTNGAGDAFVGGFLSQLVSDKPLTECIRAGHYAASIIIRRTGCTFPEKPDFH

SMILES | pIC50 [1] | melting point
CN1CCN(c2ncnc3oc(-c4ccc(N)cc4)c(-c4ccc(F)cc4)c23)CC1 [Example 4, 4-[5-(4-Fluorophenyl)-4-(4-methyl-1-piperazinyl)furo[2,3-d]pyrimidin-6-yl]aniline] | 7.30 | 214 to 215 °C
CN1CCN(c2ncnc3oc(-c4ccc(NC(=O)CN)cc4)c(-c4ccc(F)cc4)c23)CC1 [Example 6, N-1-{4-[5-(4-Fluorophenyl)-4-(4-methyl-1-piperazinyl)furo[2,3-d]pyrimidin-6-yl]phenylgylcinamidedihydrochloride] | 7.70 | 
CN1CCN(c2ncnc3oc(-c4ccc(N)nc4)c(-c4ccccc4)c23)CC1 [Example 8, 5-[4-(4-Methyl-1-piperazinyl)-5-phenylfuro[2,3-d]pyrimidin-6-yl]-2-pyridineamine] | 7.10 | 229 to 231 °C
CN1CCN(c2ccc(-c3oc4ncnc(N5CCC(O)CC5)c4c3-c3ccccc3)cn2)CC1 [Example 10, 1-{6-[6-(4-Methyl-1-piperazinyl)-3-pyridinyl]-5-phenylfuro[2,3-d]pyrimidin-4-yl]-4-piperidinol] | 8.00 | 
CC(C)CNc1ncnc2oc(-c3ccc(C(=O)N4CCN(C)CC4)cc3)c(-c3ccccc3)c12 [Example 13, N-Isobutyl-6-{4-[(4-methyl-1-piperazinyl)carbonyl]phenyl}-5-phenylfuro[2,3-d]-pyrimidine-4-amine] | 7.00 | 
CN1CCN(c2ncnc3oc(-c4ccc(N5CCC5=O)cc4)c(-c4ccc(F)cc4)c23)CC1 [Example 24, 1-{4-[5-(4-Fluorophenyl)-4-(4-methyl-1-piperazinyl)furo[2,3-d]pyrimidin-6-yl]phenyl}-2-azetidinone] | 7.52 | 
COc1ccc(-c2oc3ncnc(N(C)C4CCCCCC4)c3c2-c2ccc(OC)cc2)cc1 [Example 29, N-Cycloheptyl-5,6-bis(4-methoxyphenyl)-N-methylfuro[2,3-d]pyrimidine-4-amine] | 7.10 | 
CN1CCN(c2ncnc3oc(-c4ccc(NC(=O)c5cccnc5)cc4)c(-c4ccccc4)c23)CC1 [Example 32, N-{4-[4-(4-Methyl-1-piperazinyl)-5-phenylfuro[2,3-d]pyrimidin-6-yl]phenyl}-nicotinamide] | 7.52 | 
CN(C)CC(=O)Nc1ccc(-c2oc3ncnc(N4CCOCC4)c3c2-c2ccc(F)cc2)cc1 [Example 35] | 7.70 | 228 to 235 °C
CN1CCN(c2ncnc3oc(-c4ccc(NCCO)nc4)c(-c4ccccc4)c23)CC1 [Example 37] | 7.70 | 219 to 221 °C
OCCNc1ccc(-c2oc3ncnc(N4CCC(O)CC4)c3c2-c2ccc(F)cc2)cn1 [Example 193, 1-(5-(4-Fluorophenyl)-6-{6-[(2-hydroxyethyl)amino]-3-pyridinyl]furo[2,3-d]pyrimidin-4-yl)-4-piperidinol] | 7.52 | 
OC1CCN(c2ccc(-c3oc4ncnc(N5CCC(O)CC5)c4c3-c3ccc(F)cc3)cn2)CC1 [Example 198, 1-{5-[5-(4-Fluorophenyl)-4-(4-hydroxy-1-piperidinyl)furo[2,3-d]pyrimidin-6-yl]-2-pyridinyl}-4-piperidinol] | 7.70 | 
O=C(Nc1ccc(-c2oc3ncnc(N4CCC(O)CC4)c3c2-c2ccc(F)cc2)cc1)[C@@H]1CCCN1 [Example 201, N-{4-[5-Fluorophenyl)-4-(4-hydroxy-1-piperidinyl)furo[2.3-d]pyrimidin-6-yl]-phenyl}-L-prolinamide Hydrochloride] | 7.70 | 
CC(=O)N1CCN(c2ccc(-c3oc4ncnc(N5CCC(O)CC5)c4c3-c3ccc(F)cc3)cn2)CC1 [Example 255] | 8.30 | 
NC1CCN(c2ccc(-c3oc4ncnc(N5CCC(N)CC5)c4c3-c3ccc(F)cc3)cn2)CC1 [Example 270] | 7.52 | 
CCN1CCN(c2ccc(-c3oc4ncnc(N5CCN(CC)CC5)c4c3-c3ccc(F)cc3)cn2)CC1 [Example 326] | 7.82 | 

Source: patent publication US20040259888A1, “Novel 4-aminofuropyrimidines and the use thereof” (priority 2001, published 2004)
